{"source": "patent US11166924B2", "about": "“N-methyl-d-aspartate receptor allosteric modulators and methods for their use” (Qingdao Primedicine Pharmaceutical Company, Ltd., priority 2016, dated 2021)", "type_in_all_cases": "cell-based", "key": {"GluN1/GluN2A NMDARs": {"biological_target": "T1, GluN1/GluN2A NMDARs (Rattus norvegicus, UniProt P35439+Q00959)", "T1 construct": "expressed in transfected cells; host or cells: HEK293", "experiment": "Whole-cell patch clamp recordings in HEK293 cells transfected with GluN1/GluN2A", "conditions": "for Enhancement of NMDA-mediated currents: compared to glutamate alone; for Selectivity for GluN1/GluN2A versus GluN1/GluN2B NMDARs: FIG. 2, HEK293 cells expressing GluN1/GluN2A and GluN1/GluN2B; for Normalized Potentiation: positive modulation of GluN1/GluN2A NMDARs, concentration not given", "procedure,_shortened": "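Rat GluN1/GluN2A (1:1) transiently expressed in HEK293, recorded 48 h post-transfection by whole-cell voltage clamp at −60 mV, room temperature. CsCl/BAPTA pipette solution, pH 7.4 bath, glutamate/NMDA-evoked currents by fast perfusion. ≥6 cells per compound; EC50, relative efficacy versus maximal glutamate response and Hill slope from pooled dose-response fits.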"}, "GluN1/GluN2B NMDARs": {"biological_target": "T2, GluN1/GluN2B NMDARs (Rattus norvegicus, UniProt P35439+Q00960)", "T2 construct": "expressed in transfected cells; host or cells: HEK293", "T2 sequence (Q00960 27-1482, other chains not shown)": "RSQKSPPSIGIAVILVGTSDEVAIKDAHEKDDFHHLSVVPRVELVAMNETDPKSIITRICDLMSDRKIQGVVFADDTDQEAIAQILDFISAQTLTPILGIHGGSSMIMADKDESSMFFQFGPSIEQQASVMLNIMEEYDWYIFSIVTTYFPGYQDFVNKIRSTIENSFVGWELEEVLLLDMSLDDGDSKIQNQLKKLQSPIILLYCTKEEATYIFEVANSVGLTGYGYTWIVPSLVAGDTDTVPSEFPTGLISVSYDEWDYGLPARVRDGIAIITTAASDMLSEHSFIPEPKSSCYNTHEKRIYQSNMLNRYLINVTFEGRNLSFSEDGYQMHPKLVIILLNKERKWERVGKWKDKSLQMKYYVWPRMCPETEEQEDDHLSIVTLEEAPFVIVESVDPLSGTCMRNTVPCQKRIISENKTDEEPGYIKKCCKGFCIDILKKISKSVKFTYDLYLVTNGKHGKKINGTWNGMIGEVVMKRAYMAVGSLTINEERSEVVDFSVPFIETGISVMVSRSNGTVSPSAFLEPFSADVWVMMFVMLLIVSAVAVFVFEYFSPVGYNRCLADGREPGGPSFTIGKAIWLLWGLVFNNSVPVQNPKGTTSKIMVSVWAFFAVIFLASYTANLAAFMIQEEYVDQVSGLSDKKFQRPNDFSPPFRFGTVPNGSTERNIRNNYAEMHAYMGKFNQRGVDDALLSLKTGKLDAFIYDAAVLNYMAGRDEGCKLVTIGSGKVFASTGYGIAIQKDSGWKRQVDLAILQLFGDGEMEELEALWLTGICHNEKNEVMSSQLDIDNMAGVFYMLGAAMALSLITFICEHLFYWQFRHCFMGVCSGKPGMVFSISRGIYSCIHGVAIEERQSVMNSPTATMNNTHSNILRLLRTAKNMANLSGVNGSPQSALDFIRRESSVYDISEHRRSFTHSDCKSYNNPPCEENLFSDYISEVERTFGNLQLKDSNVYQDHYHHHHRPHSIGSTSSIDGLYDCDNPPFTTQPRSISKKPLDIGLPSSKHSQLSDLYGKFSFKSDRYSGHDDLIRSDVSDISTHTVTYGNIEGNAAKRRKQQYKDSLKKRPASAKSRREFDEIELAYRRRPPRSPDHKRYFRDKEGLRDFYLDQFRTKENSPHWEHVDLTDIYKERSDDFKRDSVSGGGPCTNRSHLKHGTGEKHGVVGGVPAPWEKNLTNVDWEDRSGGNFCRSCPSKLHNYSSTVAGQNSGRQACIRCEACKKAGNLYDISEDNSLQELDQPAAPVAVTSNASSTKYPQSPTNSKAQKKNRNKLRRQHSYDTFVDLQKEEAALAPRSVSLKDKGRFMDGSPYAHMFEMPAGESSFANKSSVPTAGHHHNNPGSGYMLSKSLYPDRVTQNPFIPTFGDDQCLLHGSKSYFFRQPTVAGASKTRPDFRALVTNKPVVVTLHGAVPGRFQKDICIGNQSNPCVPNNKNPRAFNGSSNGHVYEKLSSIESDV", "experiment": "Whole-cell patch clamp recordings in HEK293 cells transfected with GluN1/GluN2B"}, "[1]": {"biological_target": "NMDARs in cultured hippocampal neurons (Rattus norvegicus, UniProt P35439+Q00959)", "sequence (Q00959 23-1464, other chains not shown)": "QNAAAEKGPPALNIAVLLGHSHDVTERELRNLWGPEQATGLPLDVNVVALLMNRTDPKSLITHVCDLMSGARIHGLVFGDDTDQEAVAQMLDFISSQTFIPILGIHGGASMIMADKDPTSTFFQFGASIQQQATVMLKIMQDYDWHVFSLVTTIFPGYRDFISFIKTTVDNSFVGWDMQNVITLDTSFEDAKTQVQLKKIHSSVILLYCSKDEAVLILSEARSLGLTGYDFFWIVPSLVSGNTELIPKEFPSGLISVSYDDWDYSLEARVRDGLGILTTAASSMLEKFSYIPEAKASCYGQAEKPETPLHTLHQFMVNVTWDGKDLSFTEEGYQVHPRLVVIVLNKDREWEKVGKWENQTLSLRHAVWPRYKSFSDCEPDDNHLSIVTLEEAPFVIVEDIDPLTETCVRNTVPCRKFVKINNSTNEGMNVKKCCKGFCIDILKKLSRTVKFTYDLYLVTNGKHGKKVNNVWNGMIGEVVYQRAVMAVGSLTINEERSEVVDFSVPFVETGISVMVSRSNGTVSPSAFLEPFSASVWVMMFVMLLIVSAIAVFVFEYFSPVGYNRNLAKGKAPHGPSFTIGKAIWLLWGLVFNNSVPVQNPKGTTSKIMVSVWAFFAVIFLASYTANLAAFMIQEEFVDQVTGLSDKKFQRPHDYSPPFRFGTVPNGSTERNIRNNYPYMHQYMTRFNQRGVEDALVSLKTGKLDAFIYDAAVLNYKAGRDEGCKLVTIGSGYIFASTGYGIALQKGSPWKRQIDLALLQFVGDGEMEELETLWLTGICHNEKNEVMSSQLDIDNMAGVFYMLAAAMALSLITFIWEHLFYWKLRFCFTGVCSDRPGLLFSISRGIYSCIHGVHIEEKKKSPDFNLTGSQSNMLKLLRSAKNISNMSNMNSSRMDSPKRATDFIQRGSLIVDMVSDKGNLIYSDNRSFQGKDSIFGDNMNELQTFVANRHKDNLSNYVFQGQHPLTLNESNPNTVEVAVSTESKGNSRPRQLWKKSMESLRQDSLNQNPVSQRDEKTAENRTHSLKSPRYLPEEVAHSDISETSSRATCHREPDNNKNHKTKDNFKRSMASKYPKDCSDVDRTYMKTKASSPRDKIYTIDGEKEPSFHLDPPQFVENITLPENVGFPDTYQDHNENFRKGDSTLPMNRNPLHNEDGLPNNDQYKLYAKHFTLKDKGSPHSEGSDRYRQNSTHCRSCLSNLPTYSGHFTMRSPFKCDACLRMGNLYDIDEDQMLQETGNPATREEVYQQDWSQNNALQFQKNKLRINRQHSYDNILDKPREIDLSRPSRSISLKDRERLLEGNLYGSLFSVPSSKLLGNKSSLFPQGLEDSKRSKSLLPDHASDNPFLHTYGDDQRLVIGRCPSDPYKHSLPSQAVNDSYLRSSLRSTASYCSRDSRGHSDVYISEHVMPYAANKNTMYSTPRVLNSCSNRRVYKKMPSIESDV", "experiment": "Whole-cell voltage clamp recordings of NMDAR currents in cultured hippocampal/cortical neurons"}, "GluN1/GluN2A^Q111A": {"biological_target": "T3, GluN1/GluN2A^Q111A (Rattus norvegicus, UniProt P35439+Q00959, Q111A)", "T3 construct": "expressed in transfected cells; host or cells: HEK293", "experiment": "Patch clamp in HEK293 cells expressing mutant GluN1/GluN2A Q111A", "procedure": "(§1) Whole cell patch-clamp recordings were performed under voltage-clamp mode using an Axopatch 200B or 1D patch-clamp amplifier (Molecular Devices). Whole-cell currents were recorded at a holding potential of −60 mV unless indicated elsewhere, and signals were filtered at 2 kHz, digitized at 10 kHz (Digidata 1322A). Recording pipettes (3-5 MΩ) were filled with intracellular solution containing (mM): CsCl 140, HEPES 10, Mg-ATP 4, QX-314 5, pH 7.20; osmolarity, 290-295 mOsm. BAPTA (10 mM) was added in the intracellular solution (unless otherwise specified). The coverslips were continuously superfused with extracellular solution containing (mM): NaCl 140, KCl 5.4, HEPES 10, CaCl2 1.3, glucose 20, pH 7.4; osmolarity, 305-315 mOsm. NMDA-induced currents were applied by NMDA through perfusion fast-step (Warner Instruments). With perfusion fast-step system, NMDA application was achieved by using a two-square barrel glass tubing and depending on the age of the cultured neurons, CNQX (10 μM), TTX (0.5 μM) or BIC (10 μM) were added in the extracellular solution to minimize the activation of ionotropic glutamate receptors and voltage-gated sodium channels, respectively. All experiments were performed at room temperature. Recordings from at least six HEK293 cells/neurons were performed for all active compounds. Data were pooled among HEK293 cells or primary neurons and composite dose-response data were fitted by the equation Percentage Response=100×Relative Efficacy/[1+(EC50/Concentration)nH], where EC50 is the concentration of agonist that produces a half-maximal response, relative efficacy is the response at maximally effective concentration relative to the maximal response of glutamate, and nH is the Hill slope.\n(§2) The site-directed mutagenesis of GluN1 or GluN2A subunits were performed by using the QuikChange method (Stratagene). All mutant clones were confirmed by DNA sequencing. Wild-type or mutant subunits were transfected in HEK293 cells and subjected to electrophysiology examinations. […]"}, "GluN1/GluN2A^F177S": {"biological_target": "T4, GluN1/GluN2A^F177S (Rattus norvegicus, UniProt P35439+Q00959, F177S)", "T4 construct": "expressed in transfected cells; host or cells: HEK293", "T4 sequence (Q00959 23-1464 F177S, other chains not shown)": "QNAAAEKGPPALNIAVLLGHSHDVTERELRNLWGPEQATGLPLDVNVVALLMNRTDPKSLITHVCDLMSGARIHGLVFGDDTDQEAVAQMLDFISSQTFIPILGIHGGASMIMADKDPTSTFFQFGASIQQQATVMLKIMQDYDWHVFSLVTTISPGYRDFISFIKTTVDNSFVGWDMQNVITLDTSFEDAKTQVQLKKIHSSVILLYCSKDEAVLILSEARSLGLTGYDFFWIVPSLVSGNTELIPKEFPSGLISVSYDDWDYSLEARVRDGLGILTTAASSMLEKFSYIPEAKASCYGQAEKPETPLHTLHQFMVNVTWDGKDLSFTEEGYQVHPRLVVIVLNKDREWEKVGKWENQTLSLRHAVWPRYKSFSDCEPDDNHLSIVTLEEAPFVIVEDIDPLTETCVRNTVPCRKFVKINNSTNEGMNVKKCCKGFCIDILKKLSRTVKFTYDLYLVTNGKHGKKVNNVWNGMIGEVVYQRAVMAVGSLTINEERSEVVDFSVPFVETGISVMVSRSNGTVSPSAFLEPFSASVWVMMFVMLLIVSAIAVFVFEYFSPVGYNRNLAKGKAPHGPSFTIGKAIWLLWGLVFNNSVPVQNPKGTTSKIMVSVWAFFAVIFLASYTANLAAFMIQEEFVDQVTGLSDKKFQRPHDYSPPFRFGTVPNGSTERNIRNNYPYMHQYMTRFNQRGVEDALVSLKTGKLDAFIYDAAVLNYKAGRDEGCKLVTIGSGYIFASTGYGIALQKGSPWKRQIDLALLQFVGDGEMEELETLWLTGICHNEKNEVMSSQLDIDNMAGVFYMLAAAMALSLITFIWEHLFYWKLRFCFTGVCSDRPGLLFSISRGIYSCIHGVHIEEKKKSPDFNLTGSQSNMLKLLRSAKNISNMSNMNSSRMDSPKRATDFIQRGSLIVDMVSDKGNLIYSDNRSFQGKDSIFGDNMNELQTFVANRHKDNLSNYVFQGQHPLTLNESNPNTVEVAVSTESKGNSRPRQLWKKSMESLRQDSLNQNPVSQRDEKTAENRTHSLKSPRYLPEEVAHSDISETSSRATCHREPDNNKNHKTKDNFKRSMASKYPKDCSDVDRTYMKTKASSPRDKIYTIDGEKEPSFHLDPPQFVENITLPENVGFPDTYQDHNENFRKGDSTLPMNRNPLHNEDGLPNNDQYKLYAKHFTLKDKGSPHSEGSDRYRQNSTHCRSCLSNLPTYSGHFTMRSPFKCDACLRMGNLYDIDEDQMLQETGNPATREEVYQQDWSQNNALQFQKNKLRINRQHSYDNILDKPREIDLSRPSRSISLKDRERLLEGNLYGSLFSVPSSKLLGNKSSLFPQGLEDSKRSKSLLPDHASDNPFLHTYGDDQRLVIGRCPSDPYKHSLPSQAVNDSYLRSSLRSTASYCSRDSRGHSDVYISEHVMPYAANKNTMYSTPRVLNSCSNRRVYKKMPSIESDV", "experiment": "Patch clamp in HEK293 cells expressing mutant GluN1/GluN2A F177S", "procedure": "as §1, §2"}}, "note": "Like-named read-outs stand apart in the source and are kept apart here.", "data": [{"smiles": "COc1cccc(/C=N/NC(=O)c2ccccc2C)c1O", "note": "[Npam02, (E)-N′-(2-hydroxy-3-methoxybenzylidene)-2-methylbenzohydrazide]", "values": [{"measurement": "Currents induced by compound applied alone", "setting": "GluN1/GluN2A NMDARs; 100 μM alone", "value": "no changes of inward or outward currents"}, {"measurement": "Enhancement of NMDA-mediated currents", "setting": "GluN1/GluN2A NMDARs; 100 μM co-applied with co-agonists", "value": "38.85±3.70", "unit": "%"}, {"measurement": "Modulation effect, wild-type", "setting": "GluN1/GluN2A NMDARs; 100 μM, wild-type GluN1/GluN2A, FIG. 8c", "value": "41.75±2.62", "unit": "%"}, {"measurement": "Enhancement of NMDA-mediated currents", "setting": "GluN1/GluN2A NMDARs; 200 μM co-applied with co-agonists", "value": "71.69±5.03", "unit": "%"}, {"measurement": "Selectivity for GluN1/GluN2A versus GluN1/GluN2B NMDARs", "setting": "GluN1/GluN2A NMDARs", "value": "selective for GluN1/GluN2A NMDARs"}, {"measurement": "Normalized Potentiation", "setting": "GluN1/GluN2A NMDARs; Table 1", "value": "243.57 ± 24.81", "unit": "%"}, {"measurement": "Currents induced by compound on its own", "setting": "GluN1/GluN2B NMDARs", "value": "did not induce currents on its own"}, {"measurement": "Potentiation of NMDAR currents", "setting": "GluN1/GluN2B NMDARs; 100 μM", "value": "did not exhibit potentiation of NMDAR currents"}, {"measurement": "activation at 100 µM", "setting": "GluN1/GluN2B NMDARs; HEK293, Table 2, 100 μM, read-out: Normalized Potentiation GluN1/GluN2B", "value": "-4.82 ± 2.83", "unit": "%"}, {"measurement": "Currents induced by compound on its own", "setting": "[1]", "value": "not able to induce inward or outward currents on its own"}, {"measurement": "activation at 100 µM", "setting": "[1]; 100 μM bath, NMDA 5 uM, glycine 2 μM, compared to NMDA control, read-out: Modulation of NMDAR currents", "value": "43 ± 6.55", "unit": "%"}, {"measurement": "Modulation effect, GluN2A Gln111Ala", "setting": "GluN1/GluN2A^Q111A; 100 μM, FIG. 8c", "value": "30.69±1.60", "unit": "%"}, {"measurement": "Modulation effect, GluN2A Phe177Ser", "setting": "GluN1/GluN2A^F177S; 100 μM, FIG. 8c", "value": "22.86±1.12", "unit": "%"}]}, {"smiles": "CCOc1cc(Cl)c(Cl)c(/C=N/NC(=O)c2ccccc2Br)c1O", "note": "[Npam43, (E)-2-bromo-N′-(2,3-dichloro-5-ethoxy-6-hydroxybenzylidene)benzohydrazide]", "values": [{"measurement": "Currents evoked by compound on its own", "setting": "GluN1/GluN2A NMDARs", "value": "did not evoke currents on its own"}, {"measurement": "Enhancement of NMDA-mediated currents", "setting": "GluN1/GluN2A NMDARs; 10 μM co-applied with co-agonists", "value": "dramatically enhanced"}, {"measurement": "Selectivity for GluN1/GluN2A versus GluN1/GluN2B NMDARs", "setting": "GluN1/GluN2A NMDARs", "value": "selective for GluN1/GluN2A NMDARs"}, {"measurement": "Normalized Potentiation", "setting": "GluN1/GluN2A NMDARs; Table 1", "value": "363.52 ± 27.3", "unit": "%"}, {"measurement": "EC50", "setting": "GluN1/GluN2A NMDARs; Table 1, potentiation, read-out: EC50", "value": 0.27, "unit": "µM"}, {"measurement": "Relative potentiation", "setting": "GluN1/GluN2A NMDARs; Table 3, GluN1^WT/GluN2A^WT", "value": "209 ± 6.7", "unit": "%"}, {"measurement": "Saturation of enhancement relative to co-agonists alone baseline", "setting": "GluN1/GluN2A NMDARs; dose-response, FIG. 9", "value": "~350", "unit": "%"}, {"measurement": "EC50", "setting": "GluN1/GluN2A NMDARs; dose-response, FIG. 9, read-out: EC50 of enhancement of GluN1/GluN2A currents", "value": "0.24 ± 0.05", "unit": "µM"}, {"measurement": "EC50", "setting": "GluN1/GluN2A NMDARs; dose-response, FIG. 9, read-out: pEC50 of enhancement of GluN1/GluN2A currents (converted)", "value": "~0.243", "unit": "µM"}, {"measurement": "Potentiation of NMDAR currents", "setting": "GluN1/GluN2B NMDARs; 10 μM", "value": "did not exhibit potentiation"}, {"measurement": "Dose-dependent enhancement of currents", "setting": "GluN1/GluN2B NMDARs; GluN2B-containing NMDARs recordings", "value": "No dose-dependent enhancement of currents"}, {"measurement": "activation at 10 µM", "setting": "[1]; 10 μM, read-out: Potentiation at saturation point, above control level baseline", "value": "322 ± 27", "unit": "%"}, {"measurement": "Selective potentiation of GluN1/GluN2A NMDARs in hippocampal neurons", "setting": "[1]; FIG. 12, with ifenprodril, NVP-AAM077, AP5 controls", "value": "selectively potentiates GluN1/GluN2A NMDARs"}, {"measurement": "Shift of NMDA dose-response curve", "setting": "[1]; Npam43 5 μM", "value": "shifted left"}, {"measurement": "Net Difference potentiation", "setting": "GluN1/GluN2A^Q111A; GluN2A Q111A, normalized to Npam43 response in wild-type GluN1/GluN2A", "value": "−38.4±0.78", "unit": "%"}, {"measurement": "Relative potentiation", "setting": "GluN1/GluN2A^Q111A; Table 3, GluN2A Q111A", "value": "129 ± 6.7", "unit": "%"}, {"measurement": "Net Difference potentiation", "setting": "GluN1/GluN2A^F177S; GluN2A F177S, normalized to wild-type", "value": "−61.7 ± 0.03", "unit": "%"}, {"measurement": "Relative potentiation", "setting": "GluN1/GluN2A^F177S; Table 3, GluN2A F177S", "value": "79.9 ± 2.6", "unit": "%"}]}]}
